Series [1] can be described thus: Solubility, guidance for forming solutions. From the text:
Compositions for use in the systems herein are readily formulated by admixing the fungal cell wall degrading enzymes and the antifungal fungal cell membrane affecting compounds with non-toxic carriers appropriate for the particular use for a composition, e.g., agriculturally acceptable carriers for agricultural uses and pharmaceutically acceptable carriers for medicinal uses. They may be formulated as liquids (solutions or suspensions) or as solids. Since the fungal cell wall degrading enzymes need free water for activity, water must be present at the time of function. […] Water is a preferred vehicle where components are soluble in it. […] Organic solvents can also be used and may be required in some cases if a solution is desired. Guidance for forming solutions follows. […] Suspension can also be employed.

Another series relates to B. cinerea strain 12. The series can be described thus: Inhibition of spore germination, ELISA plate assay (Examples III-XVI, XVIII). The class given is cell-based, Botrytis cinerea. As to conditions: for ED50: alone or with enzyme at its ED10 concentration; for inhibition of spore germination: FIG. 7. As for the experimental part: (§1) The concentration where fungal cell wall degrading enzyme individually provides a specified percentage fungal inhibition or where antifungal fungal cell membrane affecting compound individually provides a specific percentage fungal inhibition can be determined as follows: Assays are performed under sterile conditions. Equal volumes of spore suspensions, 3× potato dextrose broth, and the test solution or suspension in 5 mM Tris-HCl (pH 6.0) or 5 mM potassium phosphate buffer (pH 6.7) are mixed. The control is the same as the test solution except for the control the antifungal agent is omitted. The assay mixtures (total volume 45 or 30 μl) are incubated on flat-bottomed ELISA plates, each containing 96 wells, with 2,000 to 3,000 spores per well, at 25° C. After 22 to 30 hours, the plates are placed under an inverted microscope. The percentage of conidia germinating is determined as the percentage of the first 100 spores randomly found in a well. In addition, the lengths of 20 germ tubes are measured and averaged. All experiments are performed twice, with three replicates for each treatment. The inhibition values obtained in the two experiments are combined and averaged, and standard deviations are calculated from the 6 data points. The values obtained for the control are taken as 0% inhibition and all other values are divided by the values obtained for the control and multiplied by 100% to obtain percent inhibition. Determination of concentration corresponding to a particular percent inhibition is carried out by subjecting dose-response curves to regression analysis by using a binomial regression of the third order, with R^2 ranging between 0.95 and 0.99.
(§2) Assays were carried out by the procedure described in the summary of the invention section. Dose response curves were obtained by probit analysis of data collected from two separate experiments with each experiment involving three treatment replicates.
Each of 8 antifungal fungal cell membrane affecting compounds were used in combination with each of 8 or 6 fungal cell wall degrading enzymes to provide 50% inhibition (ED50) of B. cinerea strain 12 spore germination. Each fungal cell wall degrading enzyme was used at a concentration giving 10% inhibition of spore germination when used alone in combination with an amount of antifungal fungal cell membrane affecting compound so the combination gave 50% inhibition of spore germination.
(§3) Dose response curves were determined for each antifungal fungal cell membrane affecting compound and for each fungal cell wall degrading enzyme singly. Then each fungal cell wall degrading enzyme at a concentration giving 10% inhibition when used alone was combined with increasing amounts of antifungal fungal cell membrane affecting compound. Then the concentration of antifungal fungal cell membrane affecting compound causing the ED50 for each combination was calculated by probit analysis of data collected from two experiments with three treatment replicates for each experiment. Assays for inhibition of spore germination were carried out as described in the summary of invention section above.
The relative level of synergism (RS below) for each combination was calculated by applying Limpel's formula: Ee=X+Y−(XY/100) as described in Richer, D. L, Pestic. Sci. 19, 309-315, 1987. In Limpel's formula, X and Y are the percentages of inhibition relative to each compound used alone and Ee is the expected effect for an additional (non-synergistic) effect. If the combination of the two agents produces an observed effect (Eo) greater than Ee, synergism exists, and as the difference between Eo and Ee increases, the level of synergism is greater. […]

The test system of series [2] is Fusarium oxysporum strain FOP1. The series can be described thus: Inhibition of spore germination, ELISA plate assay (Examples V-XIV, XVII). The class given is cell-based. The following applies: for inhibition of spore germination: FIG. 8. As for the experimental part: as §1, §2, §3
The relative level of synergism (RS below) for each combination was calculated by applying Limpel's formula: Ee=X+Y−(XY/100) as described in Richer, D. L, Pestic. Sci. 19, 309-315, 1987. In Limpel's formula, X and Y are the percentages of inhibition relative to each compound used alone and Ee is the expected effect for an additional (non-synergistic) effect. If the combination of the two agents produces an observed effect (Eo) greater than Ee, synergism exists, and as the difference between Eo and Ee increases, the level of synergism is greater. In this experiment, the X value (percentage inhibition by fungal cell wall degrading enzyme when used alone was chosen to be 10 (10% inhibition of spore germination when used alone) and the observed effect, Eo, was 50 (i.e., 50% inhibition of spore germination). The Y values were obtained from the determined concentrations of antifungal cell membrane affecting compound causing the ED50 for a combination and the dose response curves for the antifungal cell membrane affecting compound used alone—i.e., the Y value was the percent inhibition for the antifungal fungal cell membrane affecting compound when used alone for the concentration of antifungal fungal cell membrane affecting compound that was determined to cause the ED50 for the combination. Ee values were then calculated from Limpel's formula. […]

A further series deals with B. cinerea. As to conditions: against B. cinerea, Watanabe et al; cited from earlier work.

In brackets after ≈: the same amount, converted by molar mass. A value given as a limit tells only on which side of the number the result lay.

Regarding `CN1C(=O)[C@]23CC4=CC=C[C@H](O)[C@H]4N2C(=O)[C@@]1(CO)SS3` [Gliotoxin, gliotoxin], in series [1], the “solubility (solvent in which the substance dissolves)” value (shortened to “solubility”) is “dissolves in methanol and ethanol”.
`CC(C)[C@@H]1NC(=O)[C@H](C)OC(=O)[C@@H](C(C)C)NC(=O)[C@@H](C(C)C)OC(=O)[C@H](C(C)C)NC(=O)[C@H](C)OC(=O)[C@@H](C(C)C)NC(=O)[C@@H](C(C)C)OC(=O)[C@H](C(C)C)NC(=O)[C@H](C)OC(=O)[C@@H](C(C)C)NC(=O)[C@@H](C(C)C)OC1=O` [Valinomycin, valinomycin]: the ED50 in the series with B. cinerea strain 12 (Table 16, concentration of valinomycin for 50% inhibition) was 7.3 (7.0-7.6) μg ml^−1. Besides, the “solubility” value in series [1] was “dissolve in acetone”. The ED in series [2] (Table 24, concentration of valinomycin for 50% inhibition, alone or with enzyme at its ED10 concentration) is recorded as 8.5 (8.0-9.0) ng ml^−1.
`CC(C)OP(=O)(OC(C)C)SCc1ccccc1` [kitazin P]: the Minimum inhibitory concentration with B. cinerea is 500 µg/mL (≈ 1730 µM).
With `NC(=O)OC[C@H](O)[C@@H](O)[C@H](N)C(=O)N[C@H](C(=O)O)[C@H]1O[C@@H](n2cc(CO)c(=O)[nH]c2=O)[C@H](O)[C@@H]1O` [polyoxin B], the Minimum inhibitory concentration with B. cinerea is 12.5 µg/mL (≈ 24.6 µM).
For the compound gramicidin, the ED50 is more than 300 µg/mL in the series on B. cinerea strain 12 (Table 15, concentration of gramicidin for 50% inhibition) and more than 300 ng/mL in series [2] (Table 23, concentration of gramicidin for 50% inhibition, alone or with enzyme at its ED10 concentration). For the same compound, the “inhibition of spore germination” value in the series with B. cinerea strain 12 (gramicidin alone) is recorded as 20-25%; in the series on B. cinerea strain 12 (gramicidin with endochitinase from G. virens strain 41 (2.5, 5 μg/ml)) it was “about 100%”; in series [2] (gramicidin alone), 20-25%; in series [2] (gramicidin with glucosidase from T. harzianum strain P1 (10, 25 μg/ml)), “about 100%”. Further, the “solubility” value in series [1] was “dissolves in ethanol”.
For the compound trichorzianine A1 [Trich. A1], the ED50 with B. cinerea strain 12 (Table 18, concentration of trichorzianine A1 for 50% inhibition) is reported as 90.5 (85-95) μg ml^−1; in series [2] (Table 26, concentration of trichorzianine A1 for 50% inhibition, alone or with enzyme at its ED10 concentration), 87 (83-91) ng ml^−1. Moreover, the “solubility” value in series [1] is on record as “readily dissolved in water”.
In the case of trichorzianine B1 [Trich. B1], the ED50 was 95.2 (92-99) μg ml^−1 with B. cinerea strain 12 (Table 19, concentration of trichorzianine B1 for 50% inhibition) and 95.5 (92-99) ng ml^−1 in series [2] (Table 27, concentration of trichorzianine B1 for 50% inhibition, alone or with enzyme at its ED10 concentration). In series [1], the “solubility” value is “readily dissolved in water”.

The values above are taken from patent publication US6512166B1, “Combinations of fungal cell wall degrading enzyme and fungal cell membrane affecting compound” (priority 1991, dated 2003).
